These results are taken from patent US7173133B2, “Diaza-spiropiperidine derivatives” (Hoffmann-La Roche Inc., priority 2004, dated 2007).

What is called IC50 is the concentration needed to halve the response being measured. A high value points to a need for much substance.

The assay concerns the target T1, mGlyT-1b (Mus musculus, UniProt P28571).
T1 sequence (P28571 1-651 isoform P28571-2): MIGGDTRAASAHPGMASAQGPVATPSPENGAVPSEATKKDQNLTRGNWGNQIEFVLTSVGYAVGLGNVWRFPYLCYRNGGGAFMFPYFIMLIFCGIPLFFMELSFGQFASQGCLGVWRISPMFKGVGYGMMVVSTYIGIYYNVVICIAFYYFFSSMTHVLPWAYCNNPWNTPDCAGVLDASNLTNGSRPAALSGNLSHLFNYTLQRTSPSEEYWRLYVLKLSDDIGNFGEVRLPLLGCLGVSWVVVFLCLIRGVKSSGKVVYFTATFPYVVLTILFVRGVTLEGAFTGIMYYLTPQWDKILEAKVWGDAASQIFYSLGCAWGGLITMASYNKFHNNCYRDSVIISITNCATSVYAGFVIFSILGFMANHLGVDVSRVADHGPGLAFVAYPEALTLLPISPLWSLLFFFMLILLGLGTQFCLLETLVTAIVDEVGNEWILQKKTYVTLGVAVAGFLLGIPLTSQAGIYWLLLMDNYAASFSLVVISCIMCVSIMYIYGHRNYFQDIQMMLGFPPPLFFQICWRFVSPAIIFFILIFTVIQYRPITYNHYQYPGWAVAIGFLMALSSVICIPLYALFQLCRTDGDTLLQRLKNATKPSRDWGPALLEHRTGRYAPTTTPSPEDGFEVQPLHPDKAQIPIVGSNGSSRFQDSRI
The assay can be described thus: Glycine uptake inhibition assay (mGlyT-1b). The class given is cell-based. As to conditions: [3H]-glycine uptake in Flp-in-CHO cells transfected with mGlyT-1b cDNA; values of some enantiomers. Here is the method:
DMEM complete medium: Nutrient mixture F-12 (Gibco Life-technologies), fetal bovine serum (FBS) 5%, (Gibco life technologies), Penicillin/Streptomycin1% (Gibco life technologies), Hygromycin 0.6 mg/ml (Gibco life technologies), Glutamine 1 mM Gibco life technologies).
Uptake buffer (UB): 150 mM NaCl, 10 mM Hepes-Tris, pH 7.4, 1 mM CaCl2, 2.5 mM KCl, 2.5 mM MgSO4, 10 mM (+) D-glucose.
Flp-in™-CHO (Invitrogen Cat n° R758–07) cells stably transfected with mGlyT1b cDNA.
Glycine Uptake Inhibition Assay (mGlyT-1b)
On day 1 mammalian cells, (Flp-in™-CHO), transfected with mGlyT-1b cDNA, were plated at the density of 40,000 cells/well in complete F-12 medium, without hygromycin in. 96-well culture plates. On day 2, the medium was aspirated and the cells were washed twice with uptake buffer (UB). The cells were then incubated for 20 min at 22° C. with either (i) no potential competitor, (ii) 10 mM non-radioactive glycine, (iii) a concentration of a potential inhibitor. […] A solution was then immediately added containing [^3H]-glycine 60 nM (11–16 Ci/mmol) and 25 μM non-radioactive glycine. The plates were incubated with gentle shaking and the reaction was stopped by aspiration of the mixture and washing (three times) with ice-cold UB. The cells were lysed with scintillation liquid, shaken 3 hours and the radioactivity in the cells was counted using a scintillation counter.
As for `O=C1NCC(c2ccccc2)C12CCN([C@@H]1CCCC[C@@H]1c1ccccc1)CC2` (mixture of isomers) [Example 1, cis-rac-4-Phenyl-8-(2-phenyl-cyclohexyl)-2,8-diaza-spiro[4.5]decan-1-one], half-maximal inhibition (IC50) was put at 61 nM.

`Cc1ccc([C@H]2CCCC[C@H]2N2CCC3(CC2)C(=O)NCC3c2ccccc2)cc1` (mixture of isomers) [Example 2, Cis-rac-4-Phenyl-8-(2-p-tolyl-cyclohexyl)-2,8-diaza-spiro[4.5]decan-1-one] gave an IC50 of 105 nM.

`O=C1NCC(c2ccccc2)C12CCN([C@@H]1CCCC[C@@H]1c1ccc(F)cc1)CC2` (mixture of isomers) [Example 6, cis-rac-8-[2-(4-Fluoro-phenyl)-cyclohexyl]-4-phenyl-2,8-diaza-spiro[4.5]decan-1-one] yielded an IC50 of 48 nM.

For `O=C1NCC(c2ccc(F)cc2)C12CCN([C@@H]1CCCC[C@@H]1c1ccc(C(F)(F)F)cc1)CC2` (mixture of isomers) [Example 10, cis-rac-4-(4-Fluoro-phenyl)-8-[2-(4-trifluoromethyl-phenyl)-cyclohexyl]-2,8-diaza-spiro[4.5]decan-1-one], the IC50 was found to be 91 nM.

`O=C1NCC(c2ccccc2)C12CCN(C1CCCCC1(O)c1ccc(F)cc1)CC2` (centres unmarked) [Example 11, 8-[2-(4-Fluoro-phenyl)-2-hydroxy-cyclohexyl]-4-phenyl-2,8-diaza-spiro[4.5]decan-1-one] displayed an IC50 of 70 nM.

`O=C1NCC(c2ccc(F)cc2)C12CCN(C1CCCCC1(O)c1ccccc1F)CC2` (centres unmarked) [Example 16, 4-(4-Fluoro-phenyl)-8-[2-(2-fluoro-phenyl)-2-hydroxy-cyclohexyl]-2,8-diaza-spiro[4.5]decan-1-one] gave an IC50 of 69 nM.

Consider `O=C1NCC(c2ccc(F)cc2)C12CCN(C1CCCCC1(O)c1cccc(Cl)c1)CC2` (centres unmarked) [Example 17, 8-[2-(3-Chloro-phenyl)-2-hydroxy-cyclohexyl]-4-(4-fluoro-phenyl)-2,8-diaza-spiro[4.5]decan-1-one], for which half-maximal inhibition (IC50) was put at 73 nM.

The compound `O=C1NCC(c2ccc(F)cc2)C12CCN(C1COCCC1(O)c1ccccc1)CC2` (stereo not drawn) [Example 29, 4-(4-Fluoro-phenyl)-8-trans-(4-hydroxy-4-phenyl-tetrahydro-pyran-3-yl)-2,8-diaza-spiro[4.5]decan-1-one] came in with an IC50 of 91 nM. The IC50 values of the last two compounds are within 1.5-fold of each other.
